Source: ChEMBL document CHEMBL3797194, “Benzimidazolone bioisosteres of potent GluN2B selective NMDA receptor antagonists” (Eur J Med Chem, 2016)

Assays:
[1] = Displacement of [3H]DTG from sigma2 receptor in rat liver homogenate incubated for 120 mins by solid scintillation counting analysis; format: tissue-based
[2] = biological target: T1, Glutamate receptor ionotropic, NMDA 2B (Homo sapiens, UniProt Q13224); test: Binding affinity to GluN2B (unknown origin)
Target sequence in this assay (Q13224 whole entry): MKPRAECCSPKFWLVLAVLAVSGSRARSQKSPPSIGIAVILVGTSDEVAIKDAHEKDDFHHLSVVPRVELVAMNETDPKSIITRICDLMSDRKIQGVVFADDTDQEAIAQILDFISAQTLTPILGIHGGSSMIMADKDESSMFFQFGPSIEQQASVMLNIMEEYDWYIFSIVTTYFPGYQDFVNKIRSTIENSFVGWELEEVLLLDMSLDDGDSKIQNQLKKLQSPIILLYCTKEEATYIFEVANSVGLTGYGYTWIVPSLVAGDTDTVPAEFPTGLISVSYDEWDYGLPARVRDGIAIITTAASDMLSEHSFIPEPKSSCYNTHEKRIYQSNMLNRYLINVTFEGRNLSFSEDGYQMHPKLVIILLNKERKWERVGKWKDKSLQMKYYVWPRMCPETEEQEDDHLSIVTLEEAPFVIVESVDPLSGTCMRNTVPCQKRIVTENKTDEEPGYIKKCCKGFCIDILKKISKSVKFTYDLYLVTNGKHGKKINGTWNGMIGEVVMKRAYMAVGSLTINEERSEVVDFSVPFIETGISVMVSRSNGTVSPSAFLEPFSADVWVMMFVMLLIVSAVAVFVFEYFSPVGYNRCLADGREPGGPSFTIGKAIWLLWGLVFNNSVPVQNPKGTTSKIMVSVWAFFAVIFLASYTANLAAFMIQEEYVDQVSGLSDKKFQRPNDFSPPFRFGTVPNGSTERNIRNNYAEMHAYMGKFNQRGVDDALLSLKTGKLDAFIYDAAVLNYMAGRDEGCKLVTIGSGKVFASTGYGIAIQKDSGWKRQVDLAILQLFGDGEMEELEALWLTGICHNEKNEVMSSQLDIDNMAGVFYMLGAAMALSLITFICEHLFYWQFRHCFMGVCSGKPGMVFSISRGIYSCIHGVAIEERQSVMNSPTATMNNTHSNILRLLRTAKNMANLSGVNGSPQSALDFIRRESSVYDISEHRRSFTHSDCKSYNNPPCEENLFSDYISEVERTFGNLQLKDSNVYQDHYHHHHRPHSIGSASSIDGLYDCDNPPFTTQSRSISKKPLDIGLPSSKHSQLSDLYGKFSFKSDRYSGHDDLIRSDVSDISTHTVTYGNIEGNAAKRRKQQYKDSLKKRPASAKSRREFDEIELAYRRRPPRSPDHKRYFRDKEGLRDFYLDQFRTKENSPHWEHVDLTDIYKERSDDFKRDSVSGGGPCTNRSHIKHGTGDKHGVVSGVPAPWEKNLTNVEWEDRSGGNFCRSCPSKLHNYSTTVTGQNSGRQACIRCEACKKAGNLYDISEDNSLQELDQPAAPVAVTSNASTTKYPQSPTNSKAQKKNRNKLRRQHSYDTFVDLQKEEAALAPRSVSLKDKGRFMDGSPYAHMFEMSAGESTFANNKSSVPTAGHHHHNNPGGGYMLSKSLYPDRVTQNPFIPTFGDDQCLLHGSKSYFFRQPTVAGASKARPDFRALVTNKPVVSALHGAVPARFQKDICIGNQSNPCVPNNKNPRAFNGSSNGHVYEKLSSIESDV

[3] = biological target: Sigma non-opioid intracellular receptor 1 (Cavia porcellus, UniProt Q60492); test: Displacement of [3H]-(+)-Pentazocine from sigma1 receptor in guinea pig brain homogenate incubated for 120 mins by solid scintillation counting analysis; format: tissue-based
[4] = biological target: T1, Glutamate receptor ionotropic, NMDA 2B; test: Displacement of [3H]ifenprodil from recombinant human GluN2B expressed in mouse L(tk-) cell membranes incubated for 120 mins by microbeta scintillation counting analysis
Target sequence in this assay (Q13224 whole entry): as above

Rattus norvegicus = organism: Rattus norvegicus; test: Displacement of [3H]DTG from sigma2 receptor in rat liver homogenate at 1 uM incubated for 120 mins by solid scintillation counting analysis; format: tissue-based
[5] = biological target: Sigma non-opioid intracellular receptor 1 (Cavia porcellus) (UniProt Q60492); test: Displacement of [3H]-(+)-Pentazocine from sigma1 receptor in guinea pig brain homogenate at 1 uM incubated for 120 mins by solid scintillation counting analysis; format: tissue-based
[6] = biological target: T1, Glutamate receptor ionotropic, NMDA 2B; test: Displacement of [3H]ifenprodil from recombinant human GluN2B expressed in mouse L(tk-) cell membranes at 1 uM incubated for 120 mins by microbeta scintillation counting analysis
Target sequence in this assay (Q13224 27-1484 limits assumed): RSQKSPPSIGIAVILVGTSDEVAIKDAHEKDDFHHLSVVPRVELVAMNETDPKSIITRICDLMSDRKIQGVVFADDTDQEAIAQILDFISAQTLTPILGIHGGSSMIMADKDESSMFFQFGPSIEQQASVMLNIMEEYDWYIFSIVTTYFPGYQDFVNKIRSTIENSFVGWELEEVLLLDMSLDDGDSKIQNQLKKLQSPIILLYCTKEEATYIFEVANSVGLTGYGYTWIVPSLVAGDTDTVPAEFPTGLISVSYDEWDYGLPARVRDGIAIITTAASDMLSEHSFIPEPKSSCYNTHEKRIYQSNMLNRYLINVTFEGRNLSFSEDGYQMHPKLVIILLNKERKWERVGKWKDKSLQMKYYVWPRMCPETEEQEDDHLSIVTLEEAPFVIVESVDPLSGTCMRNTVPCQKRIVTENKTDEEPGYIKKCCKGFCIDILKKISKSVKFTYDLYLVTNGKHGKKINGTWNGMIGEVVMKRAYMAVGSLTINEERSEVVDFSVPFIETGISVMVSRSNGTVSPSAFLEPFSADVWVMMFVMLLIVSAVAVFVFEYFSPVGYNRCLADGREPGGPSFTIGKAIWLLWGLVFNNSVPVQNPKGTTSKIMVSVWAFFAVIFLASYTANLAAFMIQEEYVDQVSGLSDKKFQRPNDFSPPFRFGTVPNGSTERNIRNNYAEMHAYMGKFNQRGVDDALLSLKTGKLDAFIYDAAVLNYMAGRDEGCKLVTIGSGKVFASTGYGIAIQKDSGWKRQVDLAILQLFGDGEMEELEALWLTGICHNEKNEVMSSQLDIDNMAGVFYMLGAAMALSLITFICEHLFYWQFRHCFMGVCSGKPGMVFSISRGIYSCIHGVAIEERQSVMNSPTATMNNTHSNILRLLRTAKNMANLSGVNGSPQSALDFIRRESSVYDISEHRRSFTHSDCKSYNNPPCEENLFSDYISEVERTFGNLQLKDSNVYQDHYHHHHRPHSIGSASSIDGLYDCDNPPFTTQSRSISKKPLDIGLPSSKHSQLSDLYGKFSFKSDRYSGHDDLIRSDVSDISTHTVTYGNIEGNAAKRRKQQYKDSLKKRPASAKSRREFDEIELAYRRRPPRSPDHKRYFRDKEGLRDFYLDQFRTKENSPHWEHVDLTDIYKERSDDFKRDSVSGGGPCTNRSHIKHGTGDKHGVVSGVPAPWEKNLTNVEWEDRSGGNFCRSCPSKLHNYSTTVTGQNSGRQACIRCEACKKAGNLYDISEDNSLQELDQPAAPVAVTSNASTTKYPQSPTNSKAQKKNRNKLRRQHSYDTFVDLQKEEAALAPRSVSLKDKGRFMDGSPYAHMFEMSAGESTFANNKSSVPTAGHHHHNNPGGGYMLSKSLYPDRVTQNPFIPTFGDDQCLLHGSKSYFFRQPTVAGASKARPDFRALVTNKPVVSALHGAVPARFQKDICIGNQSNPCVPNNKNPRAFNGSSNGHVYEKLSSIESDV

Sequence of Sigma non-opioid intracellular receptor 1 (Cavia porcellus) (Q60492 whole entry): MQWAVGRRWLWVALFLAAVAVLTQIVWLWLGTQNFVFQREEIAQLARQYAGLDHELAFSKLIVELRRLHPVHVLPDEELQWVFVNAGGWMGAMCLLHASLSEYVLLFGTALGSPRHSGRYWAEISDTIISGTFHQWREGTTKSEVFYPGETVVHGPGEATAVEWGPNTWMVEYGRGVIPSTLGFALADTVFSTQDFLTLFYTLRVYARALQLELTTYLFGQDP
Sequence of Sigma non-opioid intracellular receptor 1 (Q60492 whole entry): as above

Row | Compound | Ki [1] [nM] | inhibition (Rattus norvegicus) [%] | inhibition [5] [%] | inhibition [6] [%] | further results
1 | O=c1[nH]c2ccc([S+]([O-])CCN3CCC(Cc4ccc(F)cc4)CC3)cc2o1 (centres undefined) [BESONPRODIL] | – | – | – | – | Ki [2]: 30 nM
2 | Cn1c(=O)n(C)c2cc3c(cc21)CCCC(NCCCc1ccccc1)C3 (racemic) | 549 | – | – | – | Ki [3]: 4000 nM; Ki [4]: 697 nM
3 | Cn1c(=O)n(C)c2cc3c(cc21)CCC[C@H](O)[C@@H]3O (racemic) | – | 5 | 11 | 0 | –
4 | Cn1c(=O)n(C)c2cc3c(cc21)CCC[C@@H](O)[C@@H]3O (racemic) | – | 18 | 0 | 18 | –

Now from value to compound, other results behind:

Row | Ki [1] [nM] | inhibition (Rattus norvegicus) [%] | inhibition [5] [%] | inhibition [6] [%] | Compound | further results
5 | 57.5 | – | – | – | Cc1ccccc1NC(=N)Nc1ccccc1C [DITOLYLGUANIDINE] | –
6 | – | 32 | 19 | 0 | Cn1c(=O)n(C)c2cc3c(cc21)CCC[C@@H](O)[C@@H]3NCCCc1ccccc1 (racemic) | –
